We go through three compounds from BindingDB's records for PubMed 3806397 (University of Arizona, 1987).

Several values for one entry are separate records, joined by “and”; a condition that tells them apart may be missing. Equal entries are not always repeated.

For this assay, the target named is Beta-arrestin-1 (Oryctolagus cuniculus, UniProt Q95223).
Sequence of Beta-arrestin-1 (Q95223 whole entry): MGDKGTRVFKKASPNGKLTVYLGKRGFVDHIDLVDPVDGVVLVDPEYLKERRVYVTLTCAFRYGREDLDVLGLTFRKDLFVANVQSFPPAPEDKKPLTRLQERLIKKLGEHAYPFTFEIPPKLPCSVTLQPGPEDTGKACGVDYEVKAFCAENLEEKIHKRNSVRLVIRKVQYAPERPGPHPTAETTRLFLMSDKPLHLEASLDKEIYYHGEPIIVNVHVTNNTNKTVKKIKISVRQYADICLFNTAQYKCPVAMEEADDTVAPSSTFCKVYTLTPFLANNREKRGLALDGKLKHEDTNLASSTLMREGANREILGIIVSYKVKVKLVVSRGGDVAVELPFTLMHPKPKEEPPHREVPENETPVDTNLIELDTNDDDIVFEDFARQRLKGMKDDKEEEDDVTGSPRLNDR
By Ki is commonly meant the equilibrium dissociation constant of an inhibitor or competing ligand from its target. Read a high Ki as a looser hold on the target. As for `O=C1CCCN1CC#CCN1CCCC1` [1-[4-(2-oxo-pyrrolidin-1-yl)-but-2-ynyl]-pyrrolidinium], the Ki is 214 nM and 1560 nM. Regarding `CC(=O)OCC[N+](C)(C)C` [2-acetoxyethyl(trimethyl)ammonium;perchlorate], the Ki came to 3230 nM. Next, `C[N+](C)(C)CCOC(N)=O` [(2-Hydroxyethyl)trimethyl ammonium chloride carbamate]: 1660 nM and > 10000 nM.
